Here are results for two molecules from patent US8987522B2, “Differentiation inducer to brown-like adipocyte of white adipocyte” (Uha Mikakuto Co., Ltd., priority 2012, dated 2015).

Assay [1] has as its system human vascular endothelial cells. The settings on record: Japanese Patent Application No. 2011-118367; cited from earlier work.
In assay [2] the test system is preadipocytes. The settings on record: Japanese Patent Application No. 2012-240364; cited from earlier work.
Assay [3] deals with mature adipocytes. The settings on record: Japanese Patent Application No. 2011-145331; cited from earlier work.
Assay [4] has as its system 3T3-L1 cells (mouse-derived preadipocytes). Nature of the assay: Expression of indicator protein CO1 (mitochondria marker), Western blot. Type of assay: cell-based. How it is done: (§1) In order to evaluate the differentiation induction action to brown-like adipocytes of white adipocytes, the evaluation was carried out using 3T3-L1 cells (mouse-derived preadipocytes). The 3T3-L1 preadipocytes are usually differentiated to white adipocytes through a differentiation induction process to be matured. However, by the differentiation induction to brown-like adipocytes, an increase in the expression amount of cytochrome c oxidase protein specifically expressed in mitochondria is observed. Then, the differentiation induction to brown-like adipocytes of white adipocytes was confirmed based on the expression amount of the CO1 protein.
Culture of cells was carried out by the same method as that of Example 2 using the same samples and cells as those in Example 2. […] After the extraction, the protein concentration was measured using a BCA protein assay kit (manufactured by Thermo Fisher Scientific K.K.). […]
After the electrophoresis, the proteins are transferred to PVDF membranes (manufactured by EMD Millipore) by a semidry blotting device “TRANS-BLOT S-D SEMI-DRY TRANSFER CELL” (Product name, manufactured by Bio-Rad Laboratories Inc.), and then blotting was carried out by Immunoblock (manufactured by DS Pharma Biomedical Co., Ltd.). […] The band strength of the detected band was calculated using an image analysis software “Image J”.
A general note: A western blot detects proteins with antibodies after separation by electrophoresis.

For assay [5] the test system is unchanged. The assay is described as follows: Expression of indicator genes (Cidea, Cox7a1, UCP1) of differentiation induction to brown-like adipocytes, real-time RT-PCR. Type of assay: cell-based. The settings on record: for differentiation induction action to brown-like adipocytes from white adipocytes: 3T3-L1, overall conclusion. How it is done: as §1, with “an expression of Cidea gene, an increase in the expression amount of Cox7a1 gene expressed in mitochondria, an” for “an”, “mitochondria, and an expression enhancement of UCP1 gene, which are hardly observed in white adipocytes, are” for “mitochondria is”, “each gene of Cidea, Cox7a1, and UCP1.” for “the CO1 protein.”
For samples, two substances of resveratrol and UHA1028 were used. Since the action of the differentiation induction to brown-like adipocytes was not observed in sinapic acid, sinapic acid was not used as a comparison target. Each sample was dissolved in dimethylsulfoxide (DMSO, manufactured by Wako Pure Chemical Industries, Ltd.) with a concentration of 4 mM and 2 mM to be used for a test.
Culture was carried out using “Dulbecco's modified Eagle medium” (DMEM, Product name, manufactured by Sigma-Aldrich Corporation) containing 10% “Foetal Bovine Serum” (FBS, manufactured by Biological industries), 1% “Antibiotic-Antimycotic”, and GIBCO (manufactured by Life Technology Corporation). Adipocytes to be used for the test were prepared in accordance with a usual method.
The test was carried out as follows. 2 mL of 3T3-L1 cells were sowed with a concentration of 5×10^4 cells/mL in a 6 well dish for cell culture (manufactured by Japan Becton, Dickinson and Company), and then cultured under the conditions of 37° C. and 5% CO2 for 24 hours. 24 hours later, the DMEM culture medium was exchanged to a DMEM culture medium which was adjusted in such a manner that the final concentration of the UHA1028 was 10 μM or the final concentration of the resveratrol was 20 μM, culture was continued in such a manner that the cells were confluent to 100%, and then culture was further carried out for 48 hours. Next, the culture medium was exchanged to a culture medium in which 10 μL of each sample (Final concentration of 20 μM and 10 μM) was added to 2 mL DMEM for differentiation, to which 1% of insulin, 0.5% of dexamethasone, and 0.1% of isobutylmethylxanthine were added, attached to “AdipoInducer Reagent” (Product name, manufactured by Takara Bio, Inc.), and then differentiation induction was carried out under the conditions of 37° C. and 5% CO2 for 48 hours. After the differentiation induction for 48 hours, the culture medium was exchanged to 2 mL of DMEM for maintaining culture to which 1% of insulin was added, and then culture was further carried out for one week for maturing adipocytes. One to which 0.5% of only DMSO which is a solvent was added was used as a control.
After the end of the culture, the total amount RNA was extracted from the cells using an RNA extraction kit (Product name: NucleoSpin (Registered Trademark) RNA II, manufactured by Takara Bio, Inc.) and refined. […]
A general note: Quantitative PCR measures a nucleic acid by following its amplification.

For assay [6], the system named is mature adipocytes. Conditions: Japanese Patent Application No. 2011-186054; cited from earlier work.
Setting [7] is: 3T3-L1, UHA1028 10 μM, as compared with resveratrol 20 μM, FIG. 1.

Turning to `COc1cc(C(C)c2c(O)cc(/C=C/c3ccc(O)cc3)cc2O)cc(OC)c1O` (centres unmarked) [UHA1028], the “sirtuin expression promotion action” value in assay [1] is recorded as “sirtuin expression promotion action”. In addition, the “differential inhibition action to mature adipocytes of preadipocytes” value in assay [2] was “differential inhibition action”. Moreover, the “adiponectin production promotion action” value in assay [3] is given as “adiponectin production promotion action”. The “mitochondria marker protein (CO1) expressed in mature adipocytes” value in assay [4] (3T3-L1, Western blot band strength, as compared with DMSO and resveratrol, FIG. 2) is “significantly large”. Moreover, the “amount of mitochondria in the cells” value in assay [4] (3T3-L1, results of Examples 2 and 3, as compared with resveratrol) was “significantly increased”. Moreover, in assay [5] (setting [7]), the “expression amount of the Cox7a1 (mitochondria marker gene)” value is “significantly increased”, the “expression amount of the UCP1 gene” value is “significantly increased” and the “gene expression amount of the Cidea (marker gene of the brown-like adipocytes)” value is on record as “significantly increased”. Moreover, the “differentiation induction action to brown-like adipocytes from white adipocytes” value in assay [5] was “notably induced”. Also, the “lipoprotein lipase promotion action” value in assay [6] is reported as “lipoprotein lipase promotion action”.

With `COc1cc(/C=C/C(=O)O)cc(OC)c1O` [sinapic acid, reference compound], the “differentiation induction action to brown-like adipocytes from white adipocytes” value in assay [5] is reported as “not observed”.
